# In patent publication US4113856A, “Antibiotic mm 13902” (Beecham Group Limited, priority 1974, dated 1978):
# Entries after “also recorded” stand apart in the source; their conditions may differ. Structures can show the parent of a compound that is named as a salt.
# Key:
# stability = assay type: physicochemical
# [1] = system: various species including strains of Staphylococcus aureus, Bacillus subtilis, Escherichia coli, Klebsiella aerogenes, Proteus mirabilis; assay: antibacterial activity against various species (in words); assay type: cell-based, bacteria (various species); settings: sodium salt
# [2] = system: Escherichia coli, Klebsiella aerogenes, Proteus mirabilis, Proteus morganii and Staphylococcus aureus Russell; assay: synergy with ampicillin (in words); assay type: cell-based, bacteria (various species); settings: mixed with ampicillin
# [3] = system: Escherichia coli β-lactamase; assay: β-lactamase inhibition (in words); assay type: biochemical
# From the text: (§1) In a further experiment, the two substances were separated on a cellulose thin layer developed with isopropanol:water (8:2) and extracted from the cellulose with phosphate buffer.
# [4] = system: B. subtilis, Staphylococcus aureus, Escherichia coli, Salmonella typhimurium, Proteus mirabilis, Proteus morganii and Klebsiella aerogenes; assay: detection by bioautography after TLC on cellulose (in words); assay type: cell-based, bacteria (various species)
# Klebsiella aerogenes [5] = assay: synergy with benzylpenicillin; assay type: cell-based; settings: extracts from cellulose thin layer
# From the text: as §1
# [6] = activity in arbitrary units per mg; settings: Example 3
# Experimental: The material produced above was arbitrarily assigned an activity of 340 l/ml. Assays were determined as described in Description 3.
# Klebsiella aerogenes [7] = assay: bioautography zone diameter (Table 4); assay type: cell-based; settings: TLC cellulose, butanol/isopropyl alcohol/water 7:7:6
# Enterobacter aerogenes = assay: bioautography zone diameter (Table 4); assay type: cell-based; settings: TLC cellulose, butanol/isopropyl alcohol/water 7:7:6
# [8] = system: Staphylococcus aureus(Oxford); assay: bioautography zone diameter (Table 4); assay type: cell-based; settings: TLC cellulose, butanol/isopropyl alcohol/water 7:7:6
# [9] = system: Staphylococcus aureus(Russell); assay: bioautography zone diameter (Table 4); assay type: cell-based; settings: TLC cellulose, butanol/isopropyl alcohol/water 7:7:6
# solubility = settings: sodium salt
# E. coli B11 = assay: MIC by serial dilution in nutrient agar (Table 2); assay type: cell-based; settings: ampicillin alone
# E. coli JT417 = assay: MIC by serial dilution in nutrient agar (Table 2); assay type: cell-based; settings: ampicillin alone
# E. coli JT39 = assay: MIC by serial dilution in nutrient agar (Table 2); assay type: cell-based; settings: ampicillin alone
# [10] = system: Klebsiella aerogenes IP282; assay: MIC by serial dilution in nutrient agar (Table 2); assay type: cell-based; settings: ampicillin alone
# Proteus mirabilis 889 = assay: MIC by serial dilution in nutrient agar (Table 2); assay type: cell-based; settings: ampicillin alone
# Proteus mirabilis 247 = assay: MIC by serial dilution in nutrient agar (Table 2); assay type: cell-based; settings: ampicillin alone
# Proteus morganii F = assay: MIC by serial dilution in nutrient agar (Table 2); assay type: cell-based; settings: ampicillin alone
# Proteus rettgeri R110 = assay: MIC by serial dilution in nutrient agar (Table 2); assay type: cell-based; settings: ampicillin alone
# Staph.aureus (Russell) = assay: MIC by serial dilution in nutrient agar (Table 2); assay type: cell-based; settings: ampicillin alone
# Staph.aureus (Russell H) = assay: MIC by serial dilution in nutrient agar (Table 2); assay type: cell-based; settings: ampicillin alone
# [11] = system: β-lactamase of Klebsiella aerogenes; assay: β-lactamase inhibition (in words); assay type: biochemical
# [12] = system: β-lactamase of Staphylococcus aureus; assay: β-lactamase inhibition (in words); assay type: biochemical
# monoamine oxidase = assay: enzyme inhibition (general enzyme poison check); assay type: biochemical; settings: at concentrations in excess of those required to inhibit E. coli β-lactamase
# carbonic anhydrase = assay: enzyme inhibition (general enzyme poison check); assay type: biochemical; settings: at concentrations in excess of those required to inhibit E. coli β-lactamase
# dopa decarboxylase = assay: enzyme inhibition (general enzyme poison check); assay type: biochemical; settings: at concentrations in excess of those required to inhibit E. coli β-lactamase
# trypsin = assay: enzyme inhibition (general enzyme poison check); assay type: biochemical; settings: at concentrations in excess of those required to inhibit E. coli β-lactamase
# chymotrypsin = assay: enzyme inhibition (general enzyme poison check); assay type: biochemical; settings: at concentrations in excess of those required to inhibit E. coli β-lactamase
# urease = assay: enzyme inhibition (general enzyme poison check); assay type: biochemical; settings: at concentrations in excess of those required to inhibit E. coli β-lactamase
# Proteus morganii = assay: bioautography zone diameter (Table 4); assay type: cell-based; settings: TLC cellulose, butanol/isopropyl alcohol/water 7:7:6
# Escherichia coli 10418 = assay: bioautography zone diameter (Table 4); assay type: cell-based; settings: TLC cellulose, butanol/isopropyl alcohol/water 7:7:6
# Escherichia coli 311 = assay: bioautography zone diameter (Table 4); assay type: cell-based; settings: TLC cellulose, butanol/isopropyl alcohol/water 7:7:6
# Bacillus subtilis = assay: bioautography zone diameter (Table 4); assay type: cell-based; settings: TLC cellulose, butanol/isopropyl alcohol/water 7:7:6
smiles,measurement,setting,value
CC(=O)NC=CSC1=C(C(=O)O)N2C(=O)C(C(C)OS(=O)(=O)O)C2C1 (centres unmarked) [monobasic salts of MM 13902],stability,stability,not sufficiently stable
CC(=O)N/C=C/SC1=C(C(=O)O)N2C(=O)C(C(C)OS(=O)(=O)O)C2C1 (centres unmarked) [MM 13902],antibacterial activity,[1],possessed antibacterial activity
same,synergy with ampicillin,[2],synergizes its activity
same,β-lactamase inhibition,[3],shown to be inhibitors
same,stability,stability,tends to be unstable when in the unsalted acid form; also recorded: not sufficiently stable
same,detection by bioautography,[4],may be detected by bioautography on a variety of organisms
same,synergy with benzylpenicillin,Klebsiella aerogenes [5],shown to be synergistic with benzylpenicillin
same,activity,"[6]; partially purified salt, brown solid","37,000 units/mg"
same,Zone Diameter on Bioautography,Klebsiella aerogenes [7],20.0 mm
same,Zone Diameter on Bioautography,Enterobacter aerogenes,No Zone
same,Zone Diameter on Bioautography,[8],4.0 mm
same,Zone Diameter on Bioautography,[9],4.0 mm
same,"solubility in chloroform, diethylether and hydrocarbons",solubility,substantially insoluble
same,solubility in methanol,solubility,soluble
same,solubility in water,solubility,highly soluble
CC1(C)S[C@@H]2[C@H](NC(=O)[C@H](N)c3ccccc3)C(=O)N2[C@H]1C(=O)O [Ampicillin],minimum inhibitory concentration,E. coli B11,> 500
same,minimum inhibitory concentration,E. coli JT417,250
same,minimum inhibitory concentration,E. coli JT39,> 500
same,minimum inhibitory concentration,[10],50
same,minimum inhibitory concentration,Proteus mirabilis 889,> 500
same,minimum inhibitory concentration,Proteus mirabilis 247,> 500
same,minimum inhibitory concentration,Proteus morganii F,50
same,minimum inhibitory concentration,Proteus rettgeri R110,250
same,minimum inhibitory concentration,Staph.aureus (Russell),250
same,minimum inhibitory concentration,Staph.aureus (Russell H),> 500
CC(=O)NC=CSC1=C(C(=O)O)N2C(=O)C(C(C)OS(=O)(=O)O)C2C1 (centres unmarked) [di-sodium salt of MM 13902],activity,"[6]; di-sodium salt after cellulose chromatography, yellowish powder","73,000 units/mg"
CC(=O)N/C=C/[S+]([O-])C1=C(C(=O)O)N2C(=O)C(C(C)OS(=O)(=O)O)C2C1 (centres unmarked) [MM 4550A],antibacterial activity,[1],possesses antibacterial activity
same,synergy with ampicillin,[2],synergyses its activity
same,β-lactamase inhibition,[3],possesses enzyme inhibitory activity; also recorded: shown to be inhibitors
same,β-lactamase inhibition,[11],possesses enzyme inhibitory activity
same,β-lactamase inhibition,[12],possesses enzyme inhibitory activity
same,inhibition of monoamine oxidase,monoamine oxidase,does not inhibit
same,inhibition of carbonic anhydrase,carbonic anhydrase,does not inhibit
same,inhibition of dopa decarboxylase,dopa decarboxylase,does not inhibit
same,inhibition of trypsin,trypsin,does not inhibit
same,inhibition of chymotrypsin,chymotrypsin,does not inhibit
same,inhibition of urease,urease,does not inhibit
same,detection by bioautography,[4],may be detected by bioautography on a variety of organisms
same,synergy with benzylpenicillin,Klebsiella aerogenes [5],shown to be synergistic with benzylpenicillin
same,Zone Diameter on Bioautography,Klebsiella aerogenes [7],20.0 mm
same,Zone Diameter on Bioautography,Proteus morganii,16.0 mm
same,Zone Diameter on Bioautography,Escherichia coli 10418,20.0 mm
same,Zone Diameter on Bioautography,Escherichia coli 311,17.5 mm
same,Zone Diameter on Bioautography,Enterobacter aerogenes,6.5 mm
same,Zone Diameter on Bioautography,[8],13.0 mm
same,Zone Diameter on Bioautography,[9],12.0 mm
same,Zone Diameter on Bioautography,Bacillus subtilis,24.0 mm
